Test results from ChEMBL document CHEMBL1201862, “PubChem BioAssay data set” (2004).
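Tested at 5 concentrations; 48 h exposure; 96-well plates; endpoints linearly interpolated, else capped at highest concentration. GI50 = concentration required for 50% inhibition of growth.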 Calls of active or inactive are those of the source. Rule as the data show it: active = GI50 up to about 1.1 µM and inactive = higher.

What was measured:
Experiment in all cases: NCI anticancer screen, dose series, 48 h
HT-29 = system: HT-29
Malme-3M = system: Malme-3M
A498 = system: A498
SF-268 = system: SF-268
EKVX = system: EKVX
MOLT-4 = system: MOLT-4
SN12C = system: SN12C
A549 = system: A549
SNB-75 = system: SNB-75
OVCAR-4 = system: OVCAR-4
U-251 = system: U-251
SR = system: SR
HL-60 = system: HL-60
CCRF-CEM = system: CCRF-CEM
SNB-19 = system: SNB-19
HOP-62 = system: HOP-62
SK-MEL-5 = system: SK-MEL-5
NCI-H460 = system: NCI-H460
HOP-92 = system: HOP-92
SK-OV-3 = system: SK-OV-3

Row | Compound | GI50 (HT-29) | GI50 (Malme-3M) | GI50 (A498) | GI50 (SF-268) | GI50 (EKVX) | GI50 (MOLT-4) | GI50 (SN12C) | GI50 (A549) | GI50 (SNB-75) | GI50 (OVCAR-4) | GI50 (U-251) | GI50 (SR) | GI50 (HL-60) | GI50 (CCRF-CEM) | GI50 (SNB-19) | GI50 (HOP-62) | GI50 (SK-MEL-5) | GI50 (NCI-H460) | GI50 (HOP-92) | GI50 (SK-OV-3)
1 | Cc1ccc(CC(Cc2ccccc2C)C(=O)O)c(C(=O)O)c1 (stereo not given) | > 100 µM (inactive) | > 100 µM (inactive) | > 100 µM (inactive) | > 100 µM (inactive) | > 100 µM (inactive) | > 100 µM (inactive) | > 100 µM (inactive) | > 100 µM (inactive) | > 100 µM (inactive) | > 100 µM (inactive) | > 100 µM (inactive) | > 100 µM (inactive) | > 100 µM (inactive) | > 100 µM (inactive) | > 100 µM (inactive) | > 100 µM (inactive) | > 100 µM (inactive) | > 100 µM (inactive) | > 100 µM (inactive) | 
2 | Cc1ccc(-c2c(C#N)c(S)n(NS(=O)(=O)c3ccc(C)cc3)c(=O)c2C#N)cc1 |  | 3.56 µM (inactive) | 33.7 µM (inactive) |  | 23.6 µM (inactive) | 24.2 µM (inactive) | 31.5 µM (inactive) | 39.2 µM (inactive) | 14.3 µM (inactive) | 15.5 µM (inactive) | 18.1 µM (inactive) | 29.6 µM (inactive) | 14.9 µM (inactive) | 8.02 µM (inactive) | 21.6 µM (inactive) |  | 21 µM (inactive) |  | 22.6 µM (inactive) | 45 µM (inactive)
3 | CC#CC#C/C(=C/C=CC(=O)OC)SC | > 100 µM (inactive) | > 100 µM (inactive) | > 100 µM (inactive) | > 100 µM (inactive) | > 100 µM (inactive) | > 100 µM (inactive) | > 100 µM (inactive) | > 100 µM (inactive) | 39.4 µM (inactive) | > 100 µM (inactive) | > 100 µM (inactive) | > 10 µM (inactive) | > 100 µM (inactive) | > 10 µM (inactive) |  |  | > 100 µM (inactive) | > 100 µM (inactive) | > 100 µM (inactive) | > 100 µM (inactive)
4 | CN(C)CCCNC(=O)N/N=C\c1cccc2ccccc12 | > 10 µM (inactive) | > 10 µM (inactive) | > 10 µM (inactive) | > 10 µM (inactive) | > 10 µM (inactive) | > 10 µM (inactive) | > 10 µM (inactive) | > 10 µM (inactive) | > 10 µM (inactive) | > 10 µM (inactive) |  | > 10 µM (inactive) | > 10 µM (inactive) | > 10 µM (inactive) |  | > 10 µM (inactive) | > 10 µM (inactive) | > 10 µM (inactive) | > 10 µM (inactive) | > 10 µM (inactive)
5 | O=C(O)C(/C=C/c1ccccc1)c1ccccc1 (stereo not given) | > 100 µM (inactive) | > 100 µM (inactive) | > 100 µM (inactive) | > 100 µM (inactive) | > 100 µM (inactive) | 6.59 µM (inactive) | > 100 µM (inactive) | > 100 µM (inactive) | > 100 µM (inactive) |  | > 100 µM (inactive) | 5.11 µM (inactive) | 9.25 µM (inactive) | 14.3 µM (inactive) | > 100 µM (inactive) | > 100 µM (inactive) | > 100 µM (inactive) | > 100 µM (inactive) | > 100 µM (inactive) | > 100 µM (inactive)
6 | Nc1n[nH]c(Nc2ccc(Cl)cc2)c1P(=O)(c1ccccc1)c1ccccc1 | 24 µM (inactive) | 21.5 µM (inactive) | 37.8 µM (inactive) | 15.2 µM (inactive) | 35.2 µM (inactive) | 27.2 µM (inactive) |  | 23.9 µM (inactive) | 21.6 µM (inactive) | 22 µM (inactive) | 30.3 µM (inactive) | 53.1 µM (inactive) | 25.8 µM (inactive) | 28.6 µM (inactive) | 26.7 µM (inactive) | 20.2 µM (inactive) | 20.9 µM (inactive) | 21.3 µM (inactive) | 20.8 µM (inactive) | 30.8 µM (inactive)
7 | O=C(Nc1ccccc1)N1CCN(C(=O)Nc2ccccc2)C1=S | > 100 µM (inactive) | > 100 µM (inactive) | 0.0652 µM (active) | 20 µM (inactive) | > 100 µM (inactive) | > 100 µM (inactive) | 59.3 µM (inactive) | > 100 µM (inactive) | 17.9 µM (inactive) | 55.7 µM (inactive) | > 100 µM (inactive) | > 100 µM (inactive) | 29.3 µM (inactive) | 97.7 µM (inactive) |  | 25.2 µM (inactive) | > 100 µM (inactive) | 65 µM (inactive) | 29 µM (inactive) | 28.6 µM (inactive)
8 | Cc1nc(Cl)c2sc(=S)n(-c3ccc(F)cc3)c2n1 | 2.28 µM (inactive) | 10.6 µM (inactive) | 1.58 µM (inactive) | 1.81 µM (inactive) | 13.2 µM (inactive) |  | 5.52 µM (inactive) | 12.8 µM (inactive) | 1.44 µM (inactive) | 13.6 µM (inactive) | 5.06 µM (inactive) | 1.39 µM (inactive) | 7.16 µM (inactive) | 2.72 µM (inactive) | 1.88 µM (inactive) | 2.22 µM (inactive) | 3.04 µM (inactive) | 13.7 µM (inactive) | 14.4 µM (inactive) | 13.2 µM (inactive)
9 | Cc1c(-c2ccccc2)c(C#N)c2nnn(-c3cccc(Cl)c3)c(=O)n12 | 30.8 µM (inactive) | 87.5 µM (inactive) | 26.2 µM (inactive) | 80.5 µM (inactive) | 33.1 µM (inactive) |  | 71.8 µM (inactive) |  | 31.2 µM (inactive) | 76.2 µM (inactive) | 68.4 µM (inactive) | 12.6 µM (inactive) | > 100 µM (inactive) | 28.1 µM (inactive) |  | 37.2 µM (inactive) | 71.1 µM (inactive) | > 100 µM (inactive) | 44.9 µM (inactive) | 37.8 µM (inactive)
10 | CON(C)C(=O)C(C)N(Cc1ccccc1)Cc1ccccc1 (stereo not given) | 79.1 µM (inactive) | > 100 µM (inactive) | > 100 µM (inactive) | > 100 µM (inactive) | 65.8 µM (inactive) | 26.5 µM (inactive) | > 10 µM (inactive) | 57 µM (inactive) | 36.9 µM (inactive) |  | > 100 µM (inactive) | 69 µM (inactive) | 46.9 µM (inactive) | 50.8 µM (inactive) | > 100 µM (inactive) | 23.3 µM (inactive) | 41.3 µM (inactive) | 59 µM (inactive) | > 100 µM (inactive) | 66.8 µM (inactive)
11 | CC(C)c1ccc2c(c1)[C@@]1(C)CC[C@H](C)C(C)(C)C1CC2 (stereo not given in full) | 16.3 µM (inactive) | 18.5 µM (inactive) | 17.7 µM (inactive) | 19.1 µM (inactive) | 18.9 µM (inactive) | 37 µM (inactive) | 17.7 µM (inactive) | 17.4 µM (inactive) | 17.2 µM (inactive) | 15.9 µM (inactive) |  | 27.5 µM (inactive) | 34.4 µM (inactive) | 23.7 µM (inactive) | 19.7 µM (inactive) | 18.8 µM (inactive) | 20.3 µM (inactive) | 18.6 µM (inactive) | 16.9 µM (inactive) | 18.5 µM (inactive)
12 | N#Cc1c(N)c2c(c(-c3ccccc3)c1-c1ccccc1)C(=O)N(O)C2=O |  | > 100 µM (inactive) | 37.8 µM (inactive) | > 100 µM (inactive) | 36.6 µM (inactive) | 35.6 µM (inactive) | > 100 µM (inactive) | 31 µM (inactive) | 34 µM (inactive) | 66.8 µM (inactive) | 94.6 µM (inactive) | 62.7 µM (inactive) | 53.7 µM (inactive) | 29.8 µM (inactive) | 37.8 µM (inactive) |  | 25.3 µM (inactive) | 47.1 µM (inactive) | 64.1 µM (inactive) | 
13 | CCOC(=O)c1csc(NC(=O)CN2CCN(c3ccccc3)CC2)n1 | > 100 µM (inactive) | > 100 µM (inactive) | > 100 µM (inactive) |  | > 100 µM (inactive) | 45.6 µM (inactive) |  | > 100 µM (inactive) | 38.4 µM (inactive) | 99.1 µM (inactive) | > 100 µM (inactive) | > 100 µM (inactive) | 70.6 µM (inactive) | > 100 µM (inactive) | > 100 µM (inactive) | > 100 µM (inactive) | 34.8 µM (inactive) | > 100 µM (inactive) | > 100 µM (inactive) | > 100 µM (inactive)
14 | COc1cc(Oc2nc3ccc(C(F)(F)F)cc3nc2-c2ccccc2)cc(OC)c1OC | 21.2 µM (inactive) | 87.9 µM (inactive) | 32.9 µM (inactive) | 22.8 µM (inactive) | 37.8 µM (inactive) | > 10 µM (inactive) | 37 µM (inactive) | 17.1 µM (inactive) | 8.75 µM (inactive) | 6.58 µM (inactive) | 13 µM (inactive) | 34 µM (inactive) | 31.8 µM (inactive) | 48.5 µM (inactive) |  | 11 µM (inactive) | 14.5 µM (inactive) | 34 µM (inactive) | 14.5 µM (inactive) | 12.4 µM (inactive)
15 | CC(O)c1cc2c(s1)C(=O)c1ccsc1C2=O (stereo not given) | 0.21 µM (active) | 0.0197 µM (active) | 1.53 µM (inactive) | 0.162 µM (active) | 0.229 µM (active) | 0.213 µM (active) | 0.104 µM (active) | 0.189 µM (active) | 0.0649 µM (active) | 0.212 µM (active) | 0.0944 µM (active) | 0.103 µM (active) | 0.0144 µM (active) | 0.259 µM (active) | 0.241 µM (active) | 0.142 µM (active) | < 0.0122 µM (active) |  | 0.265 µM (active) | 2.7 µM (inactive)
